Assay results published in US20080194528A1, “Pharmaceutical compositions comprising organopolysiloxane elastomers and solubilized bioactive compounds” (GALDERMA RESEARCH AND DEVELOPMENT, priority 2005, published 2008).

Experiment: Active ingredient solubility tests in various solvents
Type: physicochemical
Procedure: The solubility of {4-[6-ethyl-4′-(1-ethyl-1-hydroxypropyl)-2′-propylbiphenyl-3-yloxymethyl]-2-hydroxymethylphenyl}methanol was tested in various solvents.

CCCc1cc(C(O)(CC)CC)ccc1-c1cc(OCc2ccc(CO)c(CO)c2)ccc1CC [compound 3, {4-[6-ethyl-4′-(1-ethyl-1-hydroxypropyl)-2′-propylbiphenyl-3-yloxymethyl]-2-hydroxymethylphenyl}methanol]
Max sol (% w/w) (in Arlamol E): 1.033 % w/w | Max sol (% w/w) (in Cremophor RH40): 3.989 % w/w | Max sol (% w/w) (in Ethanol 95): >20 % w/w | Max sol (% w/w) (in Eutanol G): 0.322 % w/w | Max sol (% w/w) (in IPP): 0.1654 % w/w | Max sol (% w/w) (in Labrafil M1944CS): 0.936 % w/w | Max sol (% w/w) (in Miglyol 812): 0.3167 % w/w | Max sol (% w/w) (in PEG 400): 6.894 % w/w | Max sol (% w/w) (in Primol 352): 0.0009 % w/w | Max sol (% w/w) (in Propylene Glycol): 2.3351 % w/w | Max sol (% w/w) (in Sweet almond oil): 0.0932 % w/w | Max sol (% w/w) (in Transcutol): >20 % w/w
